Results as given in PubChem BioAssay AID2060898 (Molecular Pharmacology Branch, DTP, NCI, 2025).
Blank lines part the entries; values can stand above or below the molecule they belong to.

Tested on: 616215-338-R-J1-PDC complex spheroid viability
Experiment: Anticancer human tumor 616215-338-R-J1-PDC patient-derived colon adenocarcinoma cell line growth inhibition [RAS]
Conditions: for IC50: curve of first compound; for viability, T/C: stronger effect = lower value
Outline: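 Agents were tested in combination matrices in half-log decrements from a top concentration at or near clinical Cmax (10 microM if undetermined). Targets were multi-cell spheroids of tumour lines plus HUVEC and MSC stromal cells.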

[1] = second compound 0.000949 µM, first compound 0.0316 µM
[2] = second compound 0.000949 µM, first compound 0.1 µM
[3] = second compound 0.000949 µM, first compound 0.316 µM
[4] = second compound 0.000949 µM, first compound 1 µM
[5] = second compound 0.000949 µM, first compound 3.16 µM
[6] = second compound 0.000949 µM, first compound 10 µM
[7] = second compound 0.003 µM, first compound 0.0316 µM
[8] = second compound 0.003 µM, first compound 0.1 µM
[9] = second compound 0.003 µM, first compound 0.316 µM
[10] = second compound 0.003 µM, first compound 1 µM
[11] = second compound 0.003 µM, first compound 3.16 µM
[12] = second compound 0.003 µM, first compound 10 µM
[13] = second compound 0.00949 µM, first compound 0.0316 µM
[14] = second compound 0.00949 µM, first compound 0.1 µM
[15] = second compound 0.00949 µM, first compound 0.316 µM
[16] = second compound 0.00949 µM, first compound 1 µM
[17] = second compound 0.00949 µM, first compound 3.16 µM
[18] = second compound 0.00949 µM, first compound 10 µM
[19] = second compound 0.03 µM, first compound 0.0316 µM
[20] = second compound 0.03 µM, first compound 0.1 µM
[21] = second compound 0.03 µM, first compound 0.316 µM
[22] = second compound 0.03 µM, first compound 1 µM
[23] = second compound 0.03 µM, first compound 3.16 µM
[24] = second compound 0.03 µM, first compound 10 µM
[25] = second compound 0.0949 µM, first compound 0.0316 µM
[26] = second compound 0.0949 µM, first compound 0.1 µM
[27] = second compound 0.0949 µM, first compound 0.316 µM
[28] = second compound 0.0949 µM, first compound 1 µM
[29] = second compound 0.0949 µM, first compound 3.16 µM
[30] = second compound 0.0949 µM, first compound 10 µM
[31] = second compound 0.3 µM, first compound 0.0316 µM
[32] = second compound 0.3 µM, first compound 0.1 µM
[33] = second compound 0.3 µM, first compound 0.316 µM
[34] = second compound 0.3 µM, first compound 1 µM
[35] = second compound 0.3 µM, first compound 3.16 µM
[36] = second compound 0.3 µM, first compound 10 µM
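Also: spheroids exposed to agents for seven days before viability readout.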
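For viability, T/C in this document: 100% = DMSO vehicle control viability.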

IC50 (second compound 0.000949 µM): < 31.6 nM
IC50 (second compound 0.003 µM): < 31.6 nM
IC50 (second compound 0.00949 µM): < 31.6 nM
IC50 (second compound 0.03 µM): < 31.6 nM
IC50 (second compound 0.0949 µM): < 31.6 nM
IC50 (second compound 0.3 µM): < 31.6 nM
Compound: CC(=O)OC12COC1CC(O)C1(C)C(=O)C(O)C3=C(C)C(OC(=O)C(O)C(NC(=O)OC(C)(C)C)c4ccccc4)CC(O)(C(OC(=O)c4ccccc4)C21)C3(C)C (stereo unspecified) + CCn1c(-c2cccnc2C(C)OC)c2c3cc(ccc31)N1CCOC(CC(NC(=O)C(C(C)C)N(C)C(=O)C3(F)CCN(C(=O)C#CC(C)(C)N(C)C)CC3)C(=O)N3CCCC(N3)C(=O)OCC(C)(C)C2)C1
viability, T/C [1]: 30.9%
viability, T/C [2]: 20.4%
viability, T/C [3]: 19.5%
viability, T/C [4]: 19.6%
viability, T/C [5]: 22.6%
viability, T/C [6]: 28.7%
viability, T/C [7]: 30.8%
viability, T/C [8]: 23.1%
viability, T/C [9]: 20.3%
viability, T/C [10]: 22.1%
viability, T/C [11]: 24.2%
viability, T/C [12]: 27%
viability, T/C [13]: 28%
viability, T/C [14]: 24.2%
viability, T/C [15]: 19.9%
viability, T/C [16]: 20.8%
viability, T/C [17]: 24.8%
viability, T/C [18]: 24.6%
viability, T/C [19]: 25.9%
viability, T/C [20]: 21.9%
viability, T/C [21]: 18.3%
viability, T/C [22]: 19%
viability, T/C [23]: 22.6%
viability, T/C [24]: 22.4%
viability, T/C [25]: 33%
viability, T/C [26]: 19.8%
viability, T/C [27]: 19.8%
viability, T/C [28]: 19%
viability, T/C [29]: 22.2%
viability, T/C [30]: 23.1%
viability, T/C [31]: 28.8%
viability, T/C [32]: 17.9%
viability, T/C [33]: 17%
viability, T/C [34]: 17.6%
viability, T/C [35]: 20.8%
viability, T/C [36]: 25.5%

IC50 (second compound 0.000949 µM): 6250 nM
IC50 (second compound 0.003 µM): 7000 nM
IC50 (second compound 0.00949 µM): > 10000 nM
IC50 (second compound 0.03 µM): 2960 nM
IC50 (second compound 0.0949 µM): 1700 nM
IC50 (second compound 0.3 µM): 564 nM
Compound: NC1c2ccccc2OC12CCN(c1cnc3c(N4CCCc5ncccc54)n[nH]c3n1)CC2 (stereo unspecified) + CCn1c(-c2cccnc2C(C)OC)c2c3cc(ccc31)N1CCOC(CC(NC(=O)C(C(C)C)N(C)C(=O)C3(F)CCN(C(=O)C#CC(C)(C)N(C)C)CC3)C(=O)N3CCCC(N3)C(=O)OCC(C)(C)C2)C1
viability, T/C [1]: 121%
viability, T/C [2]: 92.4%
viability, T/C [3]: 81.9%
viability, T/C [4]: 67.8%
viability, T/C [5]: 61%
viability, T/C [6]: 43.1%
viability, T/C [7]: 119%
viability, T/C [8]: 94.7%
viability, T/C [9]: 75.5%
viability, T/C [10]: 64.8%
viability, T/C [11]: 64.2%
viability, T/C [12]: 43%
viability, T/C [13]: 113%
viability, T/C [14]: 85.2%
viability, T/C [15]: 72.7%
viability, T/C [16]: 59%
viability, T/C [17]: 64.6%
viability, T/C [18]: 49.5%
viability, T/C [19]: 106%
viability, T/C [20]: 85.1%
viability, T/C [21]: 76.9%
viability, T/C [22]: 56.4%
viability, T/C [23]: 56.7%
viability, T/C [24]: 35%
viability, T/C [25]: 105%
viability, T/C [26]: 75.7%
viability, T/C [27]: 59.4%
viability, T/C [28]: 56.3%
viability, T/C [29]: 51.8%
viability, T/C [30]: 38.5%
viability, T/C [31]: 73.4%
viability, T/C [32]: 58%
viability, T/C [33]: 56.2%
viability, T/C [34]: 46.6%
viability, T/C [35]: 42.8%
viability, T/C [36]: 41%

IC50 (second compound 0.000949 µM): 15.2 nM
IC50 (second compound 0.003 µM): 11.2 nM
IC50 (second compound 0.00949 µM): 14.6 nM
IC50 (second compound 0.03 µM): 11.5 nM
IC50 (second compound 0.0949 µM): 10.1 nM
IC50 (second compound 0.3 µM): 9.55 nM
Compound: Nc1ccn(C2OC(CO)C(O)C2(F)F)c(=O)n1 (stereo unspecified) + CCn1c(-c2cccnc2C(C)OC)c2c3cc(ccc31)N1CCOC(CC(NC(=O)C(C(C)C)N(C)C(=O)C3(F)CCN(C(=O)C#CC(C)(C)N(C)C)CC3)C(=O)N3CCCC(N3)C(=O)OCC(C)(C)C2)C1
viability, T/C (second compound 0.000949 µM, first compound 0.00316 µM): 105%
viability, T/C (second compound 0.000949 µM, first compound 0.01 µM): 62.8%
viability, T/C [1]: 28%
viability, T/C [2]: 13.1%
viability, T/C [3]: 16.3%
viability, T/C [4]: 14.2%
viability, T/C (second compound 0.003 µM, first compound 0.00316 µM): 114%
viability, T/C (second compound 0.003 µM, first compound 0.01 µM): 51.5%
viability, T/C [7]: 29%
viability, T/C [8]: 14.6%
viability, T/C [9]: 11.6%
viability, T/C [10]: 12.4%
viability, T/C (second compound 0.00949 µM, first compound 0.00316 µM): 108%
viability, T/C (second compound 0.00949 µM, first compound 0.01 µM): 61.2%
viability, T/C [13]: 27.5%
viability, T/C [14]: 14.7%
viability, T/C [15]: 14.1%
viability, T/C [16]: 13.2%
viability, T/C (second compound 0.03 µM, first compound 0.00316 µM): 114%
viability, T/C (second compound 0.03 µM, first compound 0.01 µM): 53.9%
viability, T/C [19]: 22.2%
viability, T/C [20]: 14.9%
viability, T/C [21]: 14.6%
viability, T/C [22]: 13.5%
viability, T/C (second compound 0.0949 µM, first compound 0.00316 µM): 95.7%
viability, T/C (second compound 0.0949 µM, first compound 0.01 µM): 50.1%
viability, T/C [25]: 22.9%
viability, T/C [26]: 14.3%
viability, T/C [27]: 15.2%
viability, T/C [28]: 12.6%
viability, T/C (second compound 0.3 µM, first compound 0.00316 µM): 69.7%
viability, T/C (second compound 0.3 µM, first compound 0.01 µM): 48.9%
viability, T/C [31]: 27.8%
viability, T/C [32]: 16.6%
viability, T/C [33]: 17%
viability, T/C [34]: 17%
